Read-outs that look alike come from different tables or passages of the source.
Experiments:
Assay type in all cases: biochemical
CDK9/Cyclin T1 = target: T1, CDK9/Cyclin T1 (Homo sapiens, UniProt P50750); assay: CDK9 Enzymatic Activity Assay (Lance Kinase Activity Assay, FRET); details: for CDK9: Selectivity of CDK7 inhibition over CDK9 inhibition [fold]: Table 5B, symbols per IC50 ranges of b615
T1 construct: purchased Invitrogen
How it was run: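 TR-FRET detection of ULight-MBP substrate phosphorylation by CDK9/cyclin T1 using a Eu-anti-phospho-MBP antibody, in 50 mM HEPES pH 7.5, 10 mM MgCl2, 1 mM EGTA, 2 mM DTT, 0.01% Tween-20. Kinase reaction 1 h at room temperature, then EDTA detection buffer for 1 h before reading.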

CDK2/CycA = target: T2, CDK2/CycA (Homo sapiens, UniProt P24941); assay: CDK2 Enzymatic Activity Assay (Lance Kinase Activity Assay, FRET); details: for CDK2 IC50 range class: Table 5B, symbols per IC50 ranges of b615
T2 construct: purchased Proqinase
How it was run: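 Compounds serially diluted 1:3 over 8 steps, run with CDK2/CycA, ULight-MBP substrate and ATP in HEPES pH 7.5 buffer for 1 h at room temperature. LANCE TR-FRET detection with Eu-anti-phospho-MBP after EDTA stop; IC50 from sigmoidal dose-response curves.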

CDK7/CycH/Mat1 = target: T3, CDK7/CycH/Mat1 (Homo sapiens, UniProt P50613); assay: CDK7 Enzymatic Activity Assay (Lance Kinase Activity Assay, FRET)
T3 construct: purchased Carna
T3 sequence (P50613 whole entry): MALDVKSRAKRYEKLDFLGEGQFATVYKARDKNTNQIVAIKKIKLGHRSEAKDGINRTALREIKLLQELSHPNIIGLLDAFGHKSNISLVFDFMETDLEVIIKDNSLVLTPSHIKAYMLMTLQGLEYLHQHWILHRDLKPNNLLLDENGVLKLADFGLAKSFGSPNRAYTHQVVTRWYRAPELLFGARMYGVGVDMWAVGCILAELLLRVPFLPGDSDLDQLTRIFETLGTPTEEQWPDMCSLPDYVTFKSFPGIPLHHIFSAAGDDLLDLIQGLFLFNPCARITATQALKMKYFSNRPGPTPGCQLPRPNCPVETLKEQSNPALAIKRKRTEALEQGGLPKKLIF
T3 sequence (P51946 whole entry partner): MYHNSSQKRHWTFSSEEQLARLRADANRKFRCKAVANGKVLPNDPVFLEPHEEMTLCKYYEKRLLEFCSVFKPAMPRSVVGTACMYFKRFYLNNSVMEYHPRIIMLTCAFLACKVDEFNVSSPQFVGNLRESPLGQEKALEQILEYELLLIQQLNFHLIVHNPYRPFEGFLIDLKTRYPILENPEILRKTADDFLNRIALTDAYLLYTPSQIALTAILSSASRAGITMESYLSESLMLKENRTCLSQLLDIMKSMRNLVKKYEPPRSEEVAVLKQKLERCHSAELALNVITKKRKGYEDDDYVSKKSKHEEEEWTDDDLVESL
T3 sequence (P51948 whole entry partner): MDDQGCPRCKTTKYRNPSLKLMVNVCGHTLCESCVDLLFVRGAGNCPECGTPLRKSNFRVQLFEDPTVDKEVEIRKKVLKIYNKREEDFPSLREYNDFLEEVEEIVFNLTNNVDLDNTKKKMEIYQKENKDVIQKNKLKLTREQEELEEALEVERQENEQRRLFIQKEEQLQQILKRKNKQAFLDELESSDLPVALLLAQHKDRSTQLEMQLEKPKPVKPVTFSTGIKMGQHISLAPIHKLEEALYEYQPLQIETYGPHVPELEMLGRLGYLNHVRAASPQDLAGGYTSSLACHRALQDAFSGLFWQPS
How it was run: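 TR-FRET (LANCE) kinase assay with ULight-MBP peptide substrate and Eu-labelled anti-phospho antibody; compounds in 8-point 1:3 series in HEPES 50 mM pH 7.5, MgCl2 10 mM, EGTA 1 mM, DTT 2 mM, 0.01% Tween-20.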

[1] = Table 5A, 25 μM ATP final, read-out: CDK7: IC50 [mM] for CDK7 inhibition (the above defined ranges apply)

T1 sequence (P50750 whole entry): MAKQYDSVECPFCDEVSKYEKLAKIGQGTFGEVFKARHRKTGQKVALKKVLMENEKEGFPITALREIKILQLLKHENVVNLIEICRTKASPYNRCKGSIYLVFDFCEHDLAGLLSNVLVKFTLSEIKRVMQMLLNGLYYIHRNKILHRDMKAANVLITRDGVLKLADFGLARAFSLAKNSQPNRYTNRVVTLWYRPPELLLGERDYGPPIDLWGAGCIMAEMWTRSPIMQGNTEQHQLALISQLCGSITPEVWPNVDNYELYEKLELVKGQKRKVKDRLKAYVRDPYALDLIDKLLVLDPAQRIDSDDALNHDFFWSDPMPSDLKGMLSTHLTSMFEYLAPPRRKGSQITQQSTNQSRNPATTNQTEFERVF
T1 sequence (O60563 whole entry partner): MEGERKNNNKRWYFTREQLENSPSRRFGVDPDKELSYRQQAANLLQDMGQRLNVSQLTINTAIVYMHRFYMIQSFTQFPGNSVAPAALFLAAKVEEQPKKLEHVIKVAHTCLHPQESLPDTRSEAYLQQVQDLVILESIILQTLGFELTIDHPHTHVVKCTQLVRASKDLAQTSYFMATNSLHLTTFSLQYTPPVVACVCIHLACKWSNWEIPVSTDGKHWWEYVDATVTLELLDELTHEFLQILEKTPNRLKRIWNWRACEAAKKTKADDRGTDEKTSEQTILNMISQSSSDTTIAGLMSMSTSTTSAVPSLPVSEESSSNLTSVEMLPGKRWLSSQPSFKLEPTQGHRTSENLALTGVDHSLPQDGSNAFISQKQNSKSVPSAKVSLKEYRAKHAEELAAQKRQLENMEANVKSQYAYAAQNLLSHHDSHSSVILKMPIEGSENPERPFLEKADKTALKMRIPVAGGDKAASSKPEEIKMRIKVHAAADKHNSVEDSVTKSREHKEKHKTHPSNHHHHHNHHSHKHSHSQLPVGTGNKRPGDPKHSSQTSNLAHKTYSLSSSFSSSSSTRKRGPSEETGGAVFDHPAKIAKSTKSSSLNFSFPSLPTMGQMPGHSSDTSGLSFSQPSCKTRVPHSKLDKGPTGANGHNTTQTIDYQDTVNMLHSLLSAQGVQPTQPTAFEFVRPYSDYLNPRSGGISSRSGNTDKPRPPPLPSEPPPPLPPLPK

CDK9: Selectivity of CDK7 inhibition over CDK9 inhibition [fold] (CDK9/Cyclin T1) | CDK2 IC50 range class (CDK2/CycA) | IC50 (CDK7/CycH/Mat1; [1]) | Selectivity CDK7 over CDK9 [fold] (CDK9/Cyclin T1; Table 7, lower part) | IC50 (CDK9/Cyclin T1; Table 7, upper part) | Selectivity CDK7 over CDK2 [fold] (CDK2/CycA; Table 7, lower part) | IC50 (CDK2/CycA; Table 7, upper part) | IC50 (CDK7/CycH/Mat1; Table 7, lower part, read-out: IC50 [nM] CDK7) | IC50 (CDK7/CycH/Mat1; Table 7, upper part, read-out: IC50 [nM] CDK7) | SMILES
+++ (IC50>2500 nM) | +++ (IC50>2500 nM) | > 100 nM | – | – | – | – | – | – | COc1cccc([C@H](C)Nc2nc(N3CCC(N)C3)nc3c(C(C)C)cnn23)c1 (stereo partly drawn) [(VIII-q), 2-(3-aminopyrrolidin-1-yl)-8-isopropyl-N-((S)-1-(3-methoxyphenyl)ethyl)pyrazolo[1,5-a][1,3,5]triazin-4-amine]
+++ (IC50>2500 nM) | +++ (IC50>2500 nM) | 30 to 100 nM | – | – | – | – | – | – | CC(C)c1cnn2c(N[C@@H](C)c3ccccc3OC(F)(F)F)nc(O[C@@H]3CCCNC3)nc12 [(VII-at), 8-isopropyl-2-((R)-piperidin-3-yloxy)-N-((S)-1-(2-(trifluoro-methoxy)phenyl)ethyl)pyrazolo[1,5-a][1,3,5]triazin-4-amine]
+++ (IC50>2500 nM) | – | < 10 nM | 815 fold | > 2500 nM | 968 fold | > 2500 nM | < 10 nM | < 10 nM | CC(C)c1cnn2c(N[C@H](C)c3cccc(Cl)c3)nc(OC3CCN(C)CC3)nc12 [(VII-ad), (R)-N-(1-(3-chlorophenyl)ethyl)-8-isopropyl-2-((1-methylpiperidin-4-yl)oxy)pyrazolo[1,5-a][1,3,5]triazin-4-amine]
+++ (IC50>2500 nM) | +++ (IC50>2500 nM) | < 10 nM | – | – | – | – | – | – | CC(C)c1cnn2c(NC(C)c3ccc4[nH]ncc4c3)nc(O[C@@H]3CCCNC3)nc12 (stereo partly drawn) [(VII-ca), N-(1-(1H-indazol-5-yl)ethyl)-8-isopropyl-2-((R)-piperidin-3-yloxy)pyrazolo[1,5-a][1,3,5]triazin-4-amine]
+++ (IC50>2500 nM) | +++ (IC50>2500 nM) | 30 to 100 nM | – | – | – | – | – | – | CC(C)c1cnn2c(N[C@@H](C)c3cccc(Cl)c3)nc(O[C@@H]3CCCNC3)nc12 [(VII-aj), N-((S)-1-(3-chlorophenyl)ethyl)-8-isopropyl-2-((R)-piperidin-3-yloxy)pyrazolo[1,5-a][1,3,5]triazin-4-amine]
+++ (IC50>2500 nM) | +++ (IC50>2500 nM) | > 100 nM | – | – | – | – | – | – | COc1cccc([C@H](C)Nc2nc(N(C)CCN3CCCC3)nc3c(C(C)C)cnn23)c1 [(VIII-k), (S)-8-isopropyl-N4-(1-(3-methoxyphenyl)ethyl)-N2-methyl-N2-(2-(pyrrolidin-1-yl)ethyl)pyrazolo[1,5-a][1,3,5]triazine-2,4-diamine]
+++ (IC50>2500 nM) | +++ (IC50>2500 nM) | < 10 nM | – | – | – | – | – | – | COc1cccc([C@H](C)Nc2nc(N3CCC4(CCN4)CC3)nc3c(C(C)C)cnn23)c1 [(VIII-aj), (S)-8-isopropyl-N-(1-(3-methoxyphenyl)ethyl)-2-(1,7-diazaspiro[3.5]nonan-7-yl)pyrazolo[1,5-a][1,3,5]triazin-4-amine]
+++ (IC50>2500 nM) | +++ (IC50>2500 nM) | < 10 nM | – | – | – | – | – | – | COc1cccc([C@H](C)Nc2nc(N3CCC4(CCCN4)CC3)nc3c(C(C)C)cnn23)c1 [(VIII-ai), (S)-8-isopropyl-N-(1-(3-methoxyphenyl)ethyl)-2-(1,8-diazaspiro[4.5]decan-8-yl)pyrazolo[1,5-a][1,3,5]triazin-4-amine]
+++ (IC50>2500 nM) | +++ (IC50>2500 nM) | 10 to 30 nM | – | – | – | – | – | – | CC(C)c1cnn2c(N[C@@H](C)c3ccccc3I)nc(O[C@@H]3CCCNC3)nc12 [(VII-au), N-((S)-1-(2-iodophenyl)ethyl)-8-isopropyl-2-((R)-piperidin-3-yloxy)pyrazolo[1,5-a][1,3,5]triazin-4-amine]
+++ (IC50>2500 nM) | +++ (IC50>2500 nM) | 30 to 100 nM | – | – | – | – | – | – | CC(C)c1cnn2c(N[C@@H](C)c3cccc(F)c3)nc(O[C@@H]3CCCNC3)nc12 [(VII-ak), N-((S)-1-(3-fluorophenyl)ethyl)-8-isopropyl-2-((R)-piperidin-3-yloxy)pyrazolo[1,5-a][1,3,5]triazin-4-amine]
+++ (IC50>2500 nM) | +++ (IC50>2500 nM) | > 100 nM | – | – | – | – | – | – | COc1cccc([C@H](C)Nc2nc(CN3CC(N4CCCC4=O)C3)nc3c(C(C)C)cnn23)c1 [(XXIX-10), (S)-1-(1-((8-isopropyl-4-((1-(3-methoxyphenyl)ethyl)amino)pyrazolo[1,5-a][1,3,5]triazin-2-yl)methyl)azetidin-3-yl)pyrrolidin-2-one]
+++ (IC50>2500 nM) | +++ (IC50>2500 nM) | > 100 nM | – | – | – | – | – | – | COc1cccc([C@H](C)Nc2nc(C(=O)N(C)CCN3CCOCC3)nc3c(C(C)C)cnn23)c1 [(XXVI-2), (S)-8-isopropyl-4-((1-(3-methoxyphenyl)ethyl)amino)-N-methyl-N-(2-morpholinoethyl)pyrazolo[1,5-a][1,3,5]triazine-2-carboxamide]
+++ (IC50>2500 nM) | +++ (IC50>2500 nM) | > 100 nM | – | – | – | – | – | – | COc1cccc([C@H](C)Nc2nc(C(=O)N(C)CCN3CCCC3)nc3c(C(C)C)cnn23)c1 [(XXVI-3), (S)-8-isopropyl-4-((1-(3-methoxyphenyl)ethyl)amino)-N-methyl-N-(2-(pyrrolidin-1-yl)ethyl)pyrazolo[1,5-a][1,3,5]triazine-2-carboxamide]
+++ (IC50>2500 nM) | +++ (IC50>2500 nM) | < 10 nM | – | – | – | – | – | – | CC(C)c1cnn2c(NC(C)c3ccccc3N3CCC3)nc(O[C@@H]3CCCNC3)nc12 (stereo partly drawn) [(VII-by), N-(1-(2-(azetidin-1-yl)phenyl)ethyl)-8-isopropyl-2-((R)-piperidin-3-yloxy)pyrazolo[1,5-a][1,3,5]triazin-4-amine]
+++ (IC50>2500 nM) | +++ (IC50>2500 nM) | 30 to 100 nM | – | – | – | – | – | – | COc1cccc([C@H](C)Nc2nc(NCCOCCN)nc3c(C(C)C)cnn23)c1 [(VIII-u), (S)-N2-(2-(2-aminoethoxy)ethyl)-8-isopropyl-N4-(1-(3-methoxyphenyl)ethyl)pyrazolo[1,5-a][1,3,5]triazine-2,4-diamine]
+++ (IC50>2500 nM) | +++ (IC50>2500 nM) | > 100 nM | – | – | – | – | – | – | CC(C)c1cnn2c(NC(C)c3ccccc3N3CCCC3)nc(O[C@@H]3CCCNC3)nc12 (stereo partly drawn) [(VII-ap), 8-isopropyl-2-((R)-piperidin-3-yloxy)-N-(1-(2-(pyrrolidin-1-yl)phenyl)ethyl)pyrazolo[1,5-a][1,3,5]triazin-4-amine]
+++ (IC50>2500 nM) | +++ (IC50>2500 nM) | < 10 nM | – | – | – | – | – | – | CC(C)c1cnn2c(NC(C)c3cccc4c3cnn4C)nc(O[C@@H]3CCCNC3)nc12 (stereo partly drawn) [(VII-bh), 8-isopropyl-N-(1-(1-methyl-1H-indazol-4-yl)ethyl)-2-((R)-piperidin-3-yloxy)pyrazolo[1,5-a][1,3,5]triazin-4-amine]

Source: patent publication US9096608B2, “Pharmaceutically active pyrazolo-triazine derivatives” (LEAD DISCOVERY CENTER GMBH, priority 2012, dated 2015)
